In US20260242390A1, “TOTAL SYNTHESES OF PORTIMINE A AND ANALOGUES THEREOF AS SMALL MOLECULE MODULATORS OF NMD3” (priority 2023, published 2026):
“Also recorded” adds a separate entry of the source.

System: primary human PBMCs
Experiment: Toxicity to primary human PBMCs
Assay type: cell-based
Conditions: PBMCs 25k per well, 0.23 pM to 1 uM, 12 hr, compared to Jurkat
Procedure: Structurally related negative control ePA and PB are non-toxic in all cell types in the current concentrate range. PBMCs (25k per well), Jurkat (10k per well). Compound concentration was increased from […] to 1 uM, 4× per gradient, PBMCs using primary B cell media from Wesley (heat deactivated), and Jurkat using normal RPMI media and incubated for 12 hr.
FIG. 3. Initial SAR studies: Assessing activity of PAL functionalized PTMA analogs. […] (A) PA and Ph-PA show less toxic to healthy PBMCs compared to Jurkat cells. […] (B) Immunoblot of caspase-3 in Jurkat and PBMCs with indicated conditions.
• 1) Portimine A and its functional analogs show stereo-selective acute toxicity in cancer cells (FIG. 1). […] (B) Structure of portimine related analogs: phenyl-portimine A (Ph-PA, 36) and epi-portimine A (ePA, 38). Structure of fully functionalized portimine A-based epimeric probe pair: portimine A-diazirine-alkyne (PA-DA, 35-2) and epi-portimine A-diazirine-alkyne (ePA-DA, 35-1). (C) Cell viability analysis of portimine A and analogs. Jurkat cells were treated with increasing concentrations of portimine A and analogs for 24 hours. All presented data as mean of biological replicated experiments (n=3). […] Jurkat cells were treated with portimine A or analogs for 12 hours at 10 nM. […] Structurally related negative control ePA and PB are non-toxic in all cell types in the current concentrate range. PBMCs (25k per well), Jurkat (10k per well). […] Cell cycle analysis in Jurkat cells (FIG. 2). Jurkat cells were treated with 10 nM of indicated compounds for 24 hours, and propodium iodide was used to identify different stages of cells by flow cytometry. […] (A) PA and Ph-PA show less toxic to healthy PBMCs compared to Jurkat cells. […] (B) Immunoblot of caspase-3 in Jurkat and PBMCs with indicated conditions. […] (A) Pharmacokinetic studies of mouse intraperitoneal (i.p.) and oral (p.o.) administration for portimine (n=3). […] Impact of PA [0.3 or 1 mg/kg intraperitoneally] on MC38 tumor growth in WT mice (n=6). (C) Kaplan-Myer survival curve of WT MC38 tumor-bearing mice (n=6) after treatment with PA as described in (D). Mice were euthanized when tumor area exceeded 2000 mm^3. Statistical analysis was performed using ANOVA analysis followed by multiple comparisons test, * p≤0.05. Treatment condition: Jurkat (60 M per condition); PA-DA/ePA-DA concentration: 0.5 uM, PA or ePA: 5 uM; Incubate with probe with or without competitors (PA, ePA) for 30 min; UV irradiated for 20 min. (0.5 uM PA-DA add a no-UV condition), Standard pulldown & biotin-enrichment and western blot analysis (Elute condition: 2× sample buffer+500 uM biotin, boil for 20 mins); Primary antibody NMD3 (ProteinTech, 1:150), Actin (BioRad, 1:10000). […] Chemical proteomic profiling with PA-DA in Jurkat cells (A, B, C, G) and HCC1806 cells (D, E, F, H) show NMD3 is the primary target candidate of portimine A. Volcano plot in panels A and D show protein competition in cells treated with active photoaffinity probe PA-DA (500 nM) and DMSO or the active competitor portimine A (PA, […]), dotted lines indicate threshold of fold change <4, p-value>0.05. […] (I, J) Confirmation of PA-DA engagement of NMD3 in Jurkat and HCC1806 cells. […] Treatment condition: Jurkat (5M per well). Portimine A concentration: 2 nM-1000 nM; In total treat cell for 12 hours. […] Protein degradation of p53, Mcl1, Bid, Bim, Noxa can be rescued by MG132 or Epoxomicin. (B) NMD3 mRNA increased after PA treatment, but not ePA control compound. […]

SMILES	toxicity to healthy / primary human PBMCs	toxicity to healthy / primary human PBMCs (listed as Portimine A)
C=CC1=C[C@@H]2[C@@H]3O[C@]4(CC[C@H](O4)C(C)C[C@@H](O)C3=O)CC(O)C3=NCC[C@@]32CC1 (some centres unmarked) [PA, portimine A]	substantially less toxic	non-toxic; also recorded: do not induce apoptosis or affect cell viability
C=CC1=C[C@@H]2[C@@H]3OC4(CC[C@H](O4)C(C)C[C@@H](O)C3=O)CC(=O)C3=NCC[C@@]32CC1 (some centres unmarked) [PB, portimine B]	non-toxic; also recorded: non-toxicity	–
CC1C[C@@H](O)C(=O)[C@H]2O[C@]3(CC[C@@H]1O3)CC(O)C1=NCC[C@@]13CCC(c1ccccc1)=C[C@H]23 (some centres unmarked) [Ph-PA, phenyl-portimine A]	substantially less toxic	–
C=CC1=C[C@@H]2[C@@H]3O[C@]4(CC[C@H](O4)C(C)C[C@@H](O)C3=O)C[C@@H](O)C3=NCC[C@@]32CC1 (stereo partly drawn) [ePA, epi-portimine A]	non-toxic; also recorded: non-toxicity	–
